“Also recorded” adds a separate entry of the source.
Key:
[1] = test system: HEK293 (293) cells; assay: In vitro cell viability (cell kill) assay, CCK8; type: cell-based, human; conditions: 293; Table 19
Summary of the method: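 hPRLR stable lines; anti-PRLR-DM1 ADC (SMCC) or DM1-SMe, 10-pt 500 nM–5 pM, 3 d. CCK8 OD450 final 1-3 h (293/PC3); Hoechst nuclear count imaging (MCF7).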

[2] = test system: PC3 cells; assay: In vitro cell viability (cell kill) assay, CCK8; type: cell-based, human; conditions: Table 18
Summary of the method: (§1)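 Cells stably overexpressing human PRLR (transfected or lentiviral, FACS-enriched) were treated for 3 days with anti-PRLR-SMCC-DM1 ADCs or free DM1-SMe at 500 nM to 5 pM. HEK293 and PC3 viability was read by CCK8 OD450; MCF7 by Hoechst nuclear counts. Digitonin background subtracted; % of untreated; IC50 from 10-point four-parameter fit.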

[3] = test system: PC3/hPRLR cells; assay: In vitro cell viability (cell kill) assay, CCK8; type: cell-based, human; conditions: Table 18
Summary of the method: as §1

[4] = test system: MCF7 (MCF7/ATCC) cells; assay: In vitro cell viability (cell kill) assay, nuclear counts; type: cell-based, human; conditions: MCF7/ATCC
Source text: (§2) PRLR-overexpressing cells, including HEK293, PC3, MCF7 and NCI-N87, were generated to assess the ability of anti-PRLR conjugated antibodies to reduce cell viability. For comparative purposes, PC3 and T47D cells with overexpressed ErbB2 were also generated, as well as an MCF7 cell line over-expressing both hPRLR and hErbB2. Briefly, Lipofectamine® 2000-mediated transfection methodology was utilized to generate HEK293 cells expressing human PRLR (HEK293/hPRLR) or human ErbB2 (HEK293/hErbB2). Lipofectamine LTX with Plus Reagent was used to generate PC3 cells expressing human PRLR (PC3/hPRLR) or human ErbB2 (PC3/hErbB2). Lentiviral-mediated transduction was utilized to generate MCF7 cells expressing human PRLR (MCF7/hPRLR), NCI-N87 cells expressing human PRLR (NCI-N87/hPRLR), T47D cells over-expressing human ErbB2 (T47D/hErbB2), and MCF7 cells expressing both human PRLR and human ErbB2 (MCF7/hPRLR/hErbB2). All lines were selected for at least two weeks in complete growth media plus appropriate selection reagents. Stably expressing populations were enriched for PRLR expression via FACS using the anti PRLR antibody Control I.
(§3) Next, the ability of anti-PRLR-DM1 antibody-drug conjugates (i.e., anti-PRLR antibodies conjugated to DM1 via a non-cleavable linker [SMCC]) to reduce cell viability was determined using in vitro cell based assays. Cells were seeded in PDL-coated 96 well plates at 1500 to 10000 cells per well in complete growth media and allowed to grow overnight. For cell viability curves, ADCs or free DM1 (as the methyl disulfide derivative DM1-SMe) were added to the cells at final concentrations ranging from 500 nM to 5 pM and incubated for 3 days. The 293, PC3 and T47D cells were incubated with CCK8 (Dojindo, Rockville, Md.) for the final 1-3 hours and the absorbance at 450 nm (OD450) was determined on a Flexstation3 (Molecular Devices, Sunnyvale, Calif.). MCF7 cells were treated with Hoechst 33342 nuclear stain while being fixed with 4% formaldehyde. Images were acquired on the ImageXpress micro XL (Molecular Devices, Sunnyvale, Calif.) and nuclear counts were determined via Columbus image analysis software (Perkin Elmer, Shelton, Conn.). Background OD450 values (PC3, 293, and T47D) or nuclear counts (MCF7) from digitonin (40 nM) treated cells was subtracted from all wells and viability was expressed as a percentage of the untreated controls. IC50 values were determined from a four-parameter logistic equation over a 10-point response curve (GraphPad Prism).

[5] = test system: MCF7/hPRLR (MCF7/PRLR) cells; assay: as above; type: cell-based, human
Source text: as §2, §3

[6] = test system: T47D cells; assay: In vitro cell viability (cell kill) assay, CCK8; type: cell-based, human; conditions: T47D, Table 19
Protocol: as §3

[7] = test system: MCF7/PRLR tumors; assay: MCF7/PRLR breast cancer xenograft, tumor size and tumor growth inhibition; type: in vivo, NCr nude mice; conditions: NCr Nude mice, multi-dose 0.2 mg/kg
Source text: (§4) Briefly, 20×10^6 MCF7/PRLR cells (ATCC HTB-22 transfected with full length hPRLR as previously described) were implanted subcutaneously into the left mammary fat pad of female NCr nude mice. In other studies, 10×10^6 PC3/PRLR (ATCC CRL-1435 transfected with full length hPRLR as previously described) were implanted subcutaneously into the left flank of male SCID mice. Additionally, 10×10^6 parental T47D (ATCC HTB-133) or 7.5×10^10 T47D #11 cells (ATCC HTB-133 serially passaged in vivo as described below) were subcutaneously implanted into the left flank of female CB17 SCID mice. All mice were obtained from Taconic (Hudson, N.Y.). Each bolus of cells was supplemented with a 90-day estrogen release pellet (1.7 mg/pellet; Innovative Research America, Sarasota Fla.). […] Control reagents included PBS vehicle, free methyl-disulfide DM1 (DM1-SMe) and isotype Control 1-DM1.
(§5) In multi-dose studies, mice were dosed once a week for a total of three weeks with tumor volumes and body weights being monitored twice weekly throughout the study. Test ADCs were dosed at 5 and/or 15 mg/kg in the multi-dose studies. In single-dose studies, mice received a single dose of test ADC, and tumor volumes and body weights were monitored twice weekly throughout the study. Test ADCs were dosed at 1, 2.5, 5, and 15 mg/kg in the single-dose studies. Average tumor size as well as tumor growth inhibition relative to the vehicle treated group were calculated for each group. Tumors were measured with calipers twice a week until the average size of the vehicle group reached 1000 mm^3. Tumor size was calculated using the formula (length×width^2)/2. Tumor growth inhibition was calculated according to the following formula: (1−((Tfinal−Tinitial)/(Cfinal−Cinitial)))*100, where T (treated group) and C (control group) represent the mean tumor mass on the day the vehicle group reached 1000 mm^3. […] Results are summarized in Tables 21-25 (multi-dose) and Table 26 (single dose). (NT=not tested in the particular experiment shown).

[8] = test system: PC3/PRLR tumors; assay: PC3/PRLR xenograft, tumor size and tumor growth inhibition; type: in vivo, SCID mice; conditions: SCID mice, multi-dose 0.2 mg/kg
Source text: as §4, §5

[9] = test system: T47D#11 tumors; type: in vivo, CB17 SCID mice; conditions: mouse, in vivo, 0.2 mg/kg
Source text: as §4, §5

[10] = test system: T47Dv11 tumors; assay: T47Dv11 breast tumor xenograft, single agent and combination with fulvestrant; type: in vivo, C.B.-17 SCID mice; conditions: for Average Tumor Growth Inhibition (%) / Final Tumor Volume (mean ± SD): T47DvII tumors in SCID mice, Day 70
Protocol: The T47Dv11 model was used to assess the activity of H1H6958N2-DM1 in a model with significant levels of endogenous PRLR. […] Initially, 10×10^6 parental T47D cells were implanted subcutaneously (SC) into the left flank of female C.B.-17 SCID mice (Taconic, Hudson N.Y.). Tumors were supplemented with a 90-day release 1.7 mg estrogen pellet (Innovative Research America). Where T47D tumors were observed, they were excised and cut into 3 mm fragments and subsequently implanted into the left flank of separate female C.B.-17 SCID mice. Subsequent passaging was performed until a large tumor was disaggregated into a single cell suspension. The cells (named T47Dv11) from this tumor were then cultured in vitro and expanded. […] For efficacy studies, mice were implanted with 7.5×10^6 T47Dv11 cells into the left flank of female C.B.-17 SCID mice supplemented with a 90-day release 0.72 mg/pellet estrogen pellet. For MCF7 and MCF7/PRLR tumor xenografts, 2×10^7 MCF7/PRLR cells were implanted SC into the left mammary fat pad of female NCr nude mice (7-8 weeks old) supplemented with 90-day release 0.72 mg/pellet estrogen pellets. Tumors were measured with calipers twice a week for the duration of each study. Tumor volume was calculated using the formula TV=(length×width^2)/2.
After T47Dv11 tumors reached an average volume of ˜150-200 mm^3 (14-16 days post implantation), mice were randomized into treatment groups (n=8-9 mice/group) and received a single dose or three once-weekly doses of H1H6958N2-DM1, control ADC, or vehicle control, administered systemically by intravenous tail-vein injection. […] Tumor size and body weight were measured in vivo twice per week throughout the duration of the study.
Next, the combination of H1H6958N2-DM1 with the SERD fulvestrant was tested in the T47Dv11 xenograft model. Here, the activity of either agent at partially effective doses was compared against the activity of the agents in combination. First, a dose titration study of weekly administration of fulvestrant was performed in order to establish its single agent activity (FIG. 4).
For the subcutaneous tumors, average tumor size as well as tumor growth inhibition relative to the Vehicle treated group were calculated for each group. Tumors were measured with calipers twice a week until the average size of the vehicle group reached 1200 mm^3. Tumor size was calculated using the formula (length×width^2)/2. For all studies, tumor growth inhibition was calculated according to the following formula: (1−((Tfinal−Tinitial)/(Cfinal−Cinitial)))*100, where T (treated group) and C (control group) represent the mean tumor mass on the day the vehicle group reached 1000 mm^3.

[11] = test system: PRLR expression in T47DvII cells; assay: PRLR expression after continuous culture with fulvestrant (flow cytometry or western blotting); type: cell-based, human; conditions: continuous culture with 10 or 100 nM, data not shown
[12] = test system: TM00107 PDX tumors; assay: TM00107 patient derived xenograft (PDX) breast cancer model, tumor volume; type: in vivo, NOD SCID gamma (NSG) mice; conditions: intravenous every 4 days, 4 doses
Protocol: Efficacy of H1H6958N2-DM1 was also assessed in a patient derived xenograft (PDX) model of breast cancer that may better represent the response in patients. NOD SCID gamma (NSG) mice bearing tumor fragments of the TM00107 PDX breast cancer tumor were sourced from The Jackson Laboratories. The TM00107 PDX model was derived from an ER+/−/PR−/HER2− metastatic breast adenocarcinoma. PRLR expression was confirmed by microarray analysis and immunohistochemistry on tumor sample slides provided by The Jackson Laboratory (data not shown). When tumors were an average volume of ˜400-600 mm^3 (21 days post implantation), mice were randomized into treatment groups (n=7 mice/group) and were administered H1H6958N2-DM1, control ADC, or vehicle control by intravenous injection once weekly for a total of 4 weeks. A separate treatment group was administered paclitaxel by intravenous injection every 4 days for a total of 4 doses.

[13] = MCF7/PRLR tumors TRIAL #1, Day 52
[14] = MCF7/PRLR tumors TRIAL #2, Day 63
[15] = PC3/PRLR tumors TRIAL #1, Day 63
[16] = PC3/PRLR tumors TRIAL #2, Day 55

`COc1cc2cc(c1Cl)N(C)C(=O)C[C@H](OC(=O)[C@H](C)N(C)C(=O)CCSSC)[C@]1(C)O[C@H]1[C@H](C)[C@@H]1C[C@@](O)(NC(=O)O1)[C@H](OC)/C=C/C=C(\C)C2` [DM1-SMe, reference compound] was tested, and the “% Kill” value [1] was 95%, the IC50 [1] was 1.2 nM and the “% Kill” value [2] was 90%. The IC50 [2] was 0.5 nM, the “% Kill” value [3] was 70% and the IC50 [3] was 1 nM. The “% Kill” value ([4]; Table 18) was 80%, the IC50 ([4]; Table 18) was 3 nM and the “% Kill” value ([4]; Table 20) was 80%. For the same compound, the IC50 ([4]; Table 20) was 1.3 nM, the “% Kill” value ([5]; Table 18) was 86% and the IC50 ([5]; Table 18) was 1.9 nM. The “% Kill” value ([5]; Table 20) was 80%, the IC50 ([5]; Table 20) was 0.8 nM and the “% Kill” value [6] was 100%. For the same compound, the IC50 ([6]; read-out: IC50) was 1.5 nM, the “Average Tumor Growth Inhibition (%)” value [7, 13] was 57% and the “Final Tumor size mm^3 (mean ± SEM)” value [7, 13] was 625 ± 141 mm^3. The “Average Tumor Growth Inhibition (%)” value [7, 14] was −33%, the “Final Tumor size mm^3 (mean ± SEM)” value [7, 14] was 1080 ± 451 mm^3 and the “Average Tumor Growth Inhibition (%)” value [8, 15] was −5%. The “Final Tumor size mm^3 (mean ± SEM)” value [8, 15] was 1361 ± 120 mm^3, the “Average Tumor Growth Inhibition (%)” value [8, 16] was 7% and the “Final Tumor size mm^3 (mean ± SEM)” value [8, 16] was 1147 ± 59 mm^3. The “Average Tumor Growth Inhibition (%)” value [9] was −19% and the “Final Tumor size mm^3 (mean ± SEM)” value [9] was 1433 ± 23 mm^3.

With `C[C@]12CC[C@@H]3c4ccc(O)cc4C[C@@H](CCCCCCCCC[S+]([O-])CCCC(F)(F)C(F)(F)F)[C@H]3[C@@H]1CC[C@@H]2O` (stereo partly drawn) [fulvestrant, reference compound] the “Average Tumor Growth Inhibition (%)” value ([10]; 150 mg/kg) was 52%, the “Final Tumor Volume (mean ± SD)” value ([10]; 150 mg/kg) was 660 ± 205 mm^3 and the “Average Tumor Growth Inhibition (%)” value ([10]; 250 mg/kg) was 74%. The “Final Tumor Volume (mean ± SD)” value ([10]; 250 mg/kg) was 433 ± 189 mm^3, the “anti-tumor activity” value ([10]; combination study, individual treatment 150 or 250 mg/kg subcutaneously once weekly) was “Significant anti-tumor activity” and the “PRLR expression” value [11] was “did not decrease PRLR expression; also recorded: did not significantly reduce PRLR expression”.

With `CC(=O)O[C@H]1C(=O)[C@@]2(C)[C@H]([C@H](OC(=O)c3ccccc3)[C@]3(O)C[C@H](OC(=O)[C@H](O)[C@@H](NC(=O)c4ccccc4)c4ccccc4)C(C)=C1C3(C)C)[C@]1(OC(C)=O)CO[C@@H]1C[C@@H]2O` [paclitaxel, reference compound] the “tumor growth” value [12] was “did not have an effect on tumor growth”.

From US10925971B2, “Methods of treating PRLR positive breast cancer” (Regeneron Pharmaceuticals, Inc., priority 2016, dated 2021)
